Experimental data: patent US20240002416A1 (Rheinische-Friedrich-Wilhelms-Universität Bonn, priority 2020, published 2024)

How the values were obtained:
[1] = molecular target: T1, MRGPRX4-83S (Homo sapiens, UniProt Q96LA9, L83S); experiment: β-arrestin assay (CHO β-arrestin human MRGPRX4-83S); type: cell-based; design: host or cells: CHO β-arrestin cells; details: for Emax: efficacy based on 100 nM B-16 (set as 100%), read-out: Emax; for EC50: β-arrestin recruitment, CHO cells, MRGPRX4-83S, read-out: EC50 ± SEM
T1 sequence (Q96LA9 whole entry L83S): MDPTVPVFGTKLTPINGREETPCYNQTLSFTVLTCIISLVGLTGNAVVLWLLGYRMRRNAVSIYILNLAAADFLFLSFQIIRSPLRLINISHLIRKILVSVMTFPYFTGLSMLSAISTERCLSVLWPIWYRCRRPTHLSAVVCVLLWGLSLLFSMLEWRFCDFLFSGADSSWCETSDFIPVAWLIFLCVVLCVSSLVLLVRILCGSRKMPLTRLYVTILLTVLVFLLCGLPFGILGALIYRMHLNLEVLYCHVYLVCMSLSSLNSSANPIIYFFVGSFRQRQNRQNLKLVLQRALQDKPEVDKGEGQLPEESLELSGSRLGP
How it was run: (§1)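 Calcium mobilization measured in recombinant astrocytes expressing MRGPRX4-83L and in LN229 glioblastoma cells natively expressing MRGPRX4-83S. β-Arrestin recruitment read by β-galactosidase complementation in recombinant CHO cells expressing human MRGPRX4.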

[2] = molecular target: T1, MRGPRX4-83S; experiment: Calcium assay (human glioblastoma LN229 cells expressing the MRGPRX4-83S); type: cell-based; design: LN229 glioblastoma cells natively expressing the MRGPRX4-83S; endogenous in cells; host or cells: LN229 human glioblastoma cells; details: for Emax: LN-229, efficacy based on 30 μM H-1 (set as 100%), read-out: Emax; for Emax / EC50: Table 3; for EC50: calcium mobilization, LN229 cells, MRGPRX4-83S, read-out: EC50 ± SEM
Procedure: For β-arrestin recruitment assays, recombinant Chinese hamster ovary (CHO) cells expressing the human MRGPRX4 were used (DiscoverX/Eurofins) which allowed to measure β-galactosidase complementation upon β-arrestin recruitment. For calcium mobilization assays, recombinant astrocytes expressing MRGPX4-83L, or LN229 glioblastoma cells natively expressing the MRGPRX4-83S, were used.
The assays were performed as previously described for other rhodopsin-like GPCRs (Müller, C.E.; 8-Benzamidochromen-4-one-2-carboxylic acids: potent and selective agonists for the orphan G protein-coupled receptor GPR35. J. Med. Chem. 2013, 56:5182-97; Müller, C.E. Molecular Recognition of Agonists and Antagonists by the Nucleotide-Activated G Protein-Coupled P2Y2 Receptor. J. Med. Chem. 2017, 60:8425-8440).

[3] = molecular target: T2, human MRGPRX4-83L (Homo sapiens, UniProt Q96LA9); experiment: β-arrestin assay (CHO β-arrestin ARMS1-ProLink 2 human MRGPRX4 83L); type: cell-based; details: for IC50: inhibition of the effect of 2.6 μM B-16; for EC50: β-arrestin recruitment, CHO cells, MRGPRX4-83L, read-out: EC50 ± SEM; for Emax: efficacy based on maximal effect of 100 nM B-16 (set as 100%), read-out: Emax
T2 construct: host or cells: CHO β-arrestin cells
T2 sequence (Q96LA9 whole entry): as the sequence (Q96LA9 whole entry L83S) above, with S83L counted along it
How it was run: as §1

[4] = molecular target: T2, human MRGPRX4-83L; experiment: Calcium assay (human MRGPRX4 83L), recombinant astrocytes; type: cell-based; details: for EC50: calcium mobilization, MRGPRX4-83L, read-out: EC50 ± SEM; for Emax: efficacy based on maximal effect of 1 μM B-16 (set as 100%), read-out: Emax
How it was run: as §1

[5] = Table 1, means of 3-4 experiments

C#CCn1c(=O)c2c(nc(CCc3ccc(I)cc3)n2CC2CCCC2)n(CCCCP(=O)(O)O)c1=O [B-39, (4-(7-(cyclopentylmethyl)-8-(4-iodophenethyl)-2,6-dioxo-1-(prop-2-yn-1-yl)-1,2,6,7-tetrahydro-3H-purin-3-yl)butyl)phosphonic acid]
Emax ([1]; Table 3): 76% | EC50 ([1]; Table 3): 0.773 ± 0.106 nM | melting point: 119 to 121 °C | IC50 [2]: 0.0161 ± 0.0084 µM | Emax [2]: 23% | EC50 [2]: 0.143 ± 0.066 µM

C#CCn1c(=O)c2c(nc(CCc3ccccc3Br)n2C(C)CC)n(CCCCP(=O)(O)O)c1=O (stereo not shown) [B-49, (4-(8-(2-bromophenethyl)-7-(sec-butyl)-2,6-dioxo-1-(prop-2-yn-1-yl)-1,2,6,7-tetrahydro-3H-purin-3-yl)butyl)phosphonic acid]
Emax ([1]; Table 3): 103% | EC50 ([1]; Table 3): 0.0751 ± 0.0229 nM | melting point: 105 to 107 °C | Emax [2]: 119% | EC50 [2]: 0.000491 ± 0.000192 µM

C#CCn1c(=O)c2c(nc(CCc3ccc(C(C)C)cc3)n2CC2CCCC2)n(CCCCP(=O)(O)O)c1=O [B-43, (4-(7-(cyclopentylmethyl)-8-(4-isopropylphenethyl)-2,6-dioxo-1-(prop-2-yn-1-yl)-1,2,6,7-tetra-hydro-3H-purin-3-yl)butyl)phosphonic acid]
Emax ([1]; Table 3): 53% | EC50 ([1]; Table 3): 10.7 ± 7.1 nM | melting point: 125 to 127 °C | EC50 [2]: > 10 µM

C#CCn1c(=O)c2[nH]c(CCc3ccccc3OC)nc2n(CCCCP(=O)(OCC)OCC)c1=O [C-1, Diethyl (4-(8-(2-Methoxyphenethyl)-2,6-dioxo-1-(prop-2-yn-1-yl)-1,2,6,7-tetrahydro-3H-purin-3-yl)butyl)phosphonate]
IC50 ([3]; Table 1): > 10 µM | EC50 [3, 5]: > 10 µM | EC50 ([1]; Table 2): > 10000 nM | IC50 [4]: > 10 µM | EC50 ([4]; Table 1): > 10 µM | melting point: 104 to 106 °C

C#CCn1c(=O)c2[nH]c(CCc3cccc(C)c3)nc2n(CCCCP(=O)(OCC)OCC)c1=O [C-4, Diethyl (4-(8-(3-methylphenethyl)-2,6-dioxo-1-(prop-2-yn-1-yl)-1,2,6,7-tetrahydro-3H-purin-3-yl)butyl)phosphonate]
IC50 ([3]; Table 1): > 10 µM | EC50 [3, 5]: > 10 µM | EC50 ([1]; Table 2): > 10000 nM | IC50 [4]: > 10 µM | EC50 ([4]; Table 1): > 10 µM | melting point: 111 to 113 °C

C#CCn1c(=O)c2c(nc(CCc3ccccc3OC)n2C)n(CCCCP(=O)(OCC)OCC)c1=O [C-2, Diethyl (4-(8-(2-methoxyphenethyl)-7-methyl-2,6-dioxo-1-(prop-2-yn-1-yl)-1,2,6,7-tetrahydro-3H-purin-3-yl)butyl)phosphonate]
IC50 ([3]; Table 1): > 10 µM | EC50 [3, 5]: > 10 µM | EC50 ([1]; Table 2): > 10000 nM | IC50 [4]: > 10 µM | EC50 ([4]; Table 1): > 10 µM | melting point: 124 to 146 °C

CCOP(=O)(CCCCn1c(=O)n(CC2CCC2)c(=O)c2[nH]c(CCc3cccc(OC)c3)nc21)OCC [C-7, Diethyl (4-(1-(cyclobutylmethyl)-8-(3-methoxyphenethyl)-2,6-dioxo-1,2,6,7-tetrahydro-3H-purin-3-yl)butyl)phosphonate]
IC50 ([3]; Table 1): > 10 µM | EC50 [3, 5]: > 10 µM | EC50 ([1]; Table 2): > 10000 nM | IC50 [4]: > 10 µM | EC50 ([4]; Table 1): > 10 µM | melting point: 82 to 84 °C

CCn1c(=O)c2[nH]c(CCc3cccc(OC)c3)nc2n(CCCCS(=O)(=O)O)c1=O [E-2, 4-(1-Ethyl-8-(3-methoxyphenethyl)-2,6-dioxo-1,2,6,7-tetrahydro-3H-purin-3-yl)butane-1-sulfonic acid]
IC50 ([3]; Table 1): > 10 µM | EC50 [3, 5]: > 10 µM | EC50 ([1]; Table 2): > 10000 nM | IC50 [4]: > 10 µM | EC50 ([4]; Table 1): > 10 µM | melting point: 179 to 181 °C

C#CCn1c(=O)c2[nH]c(CCc3ccccc3Cl)nc2n(CCCCP(=O)(O)O)c1=O [B-9, (4-(8-(2-Chlorophenethyl)-2,6-dioxo-1-(prop-2-yn-1-yl)-1,2,6,7-tetrahydro-3H-purin-3-yl)butyl)phosphonic acid]
Emax ([3]; Table 1): 107% | EC50 [3, 5]: 1.26 ± 0.27 µM | Emax ([1]; Table 2): 116% | EC50 ([1]; Table 2): 3.45 ± 0.28 nM | EC50 ([4]; Table 1): 0.0552 ± 0.0017 µM | Emax ([4]; Table 1): 107% | melting point: 207 to 209 °C

O=C(O)CCCCn1c(=O)n(CC2CCC2)c(=O)c2[nH]c(CCc3cccc(C(F)(F)F)c3)nc21 [G-2, 5-(1-(Cyclobutylmethyl)-2,6-dioxo-8-(3-(trifluoromethyl)phenethyl)-1,2,6,7-tetrahydro-3H-purin-3-yl)pentanoic acid]
IC50 ([3]; Table 1): > 10 µM | EC50 [3, 5]: > 10 µM | EC50 ([1]; Table 2): > 10000 nM | IC50 [4]: > 10 µM | EC50 ([4]; Table 1): > 10 µM | melting point: 210 to 212 °C

C#CCn1c(=O)c2[nH]c(CCc3ccccc3OC)nc2n(CCCCP(=O)(O)OCC)c1=O [D-2, Ethyl hydrogen (4-(8-(2-methoxyphenethyl)-2,6-dioxo-1-(prop-2-yn-1-yl)-1,2,6,7-tetrahydro-3H-purin-3-yl)butyl)phosphonate]
Emax ([3]; Table 1): 122% | EC50 [3, 5]: 0.113 ± 0.033 µM | Emax ([1]; Table 2): 141% | EC50 ([1]; Table 2): 0.493 ± 0.104 nM | EC50 ([4]; Table 1): 3.32 ± 0.61 µM | Emax ([4]; Table 1): 103% | melting point: 172 to 174 °C

C#CCn1c(=O)c2[nH]c(CCc3ccccc3Br)nc2n(CCCCS(N)(=O)=O)c1=O [F-1, 4-(8-(2-Bromophenethyl)-2,6-dioxo-1-(prop-2-yn-1-yl)-1,2,6,7-tetrahydro-3H-purin-3-yl)butane-1-sulfonamide]
IC50 ([3]; Table 1): > 10 µM | EC50 [3, 5]: > 10 µM | EC50 ([1]; Table 2): > 10000 nM | IC50 [4]: > 10 µM | EC50 ([4]; Table 1): > 10 µM | melting point: 216 to 219 °C

C#CCn1c(=O)c2[nH]c(CCc3ccccc3Br)nc2n(CCCCP(=O)(O)O)c1=O [B-8, (4-(8-(2-Bromophenethyl)-2,6-dioxo-1-(prop-2-yn-1-yl)-1,2,6,7-tetrahydro-3H-purin-3-yl)butyl)phosphonic acid]
Emax ([3]; Table 1): 98% | EC50 [3, 5]: 0.243 ± 0.045 µM | Emax ([1]; Table 2): 143% | EC50 ([1]; Table 2): 3.15 ± 0.82 nM | EC50 ([4]; Table 1): 0.0227 ± 0.0072 µM | Emax ([4]; Table 1): 114% | melting point: 209 to 212 °C

C#CCn1c(=O)c2c(nc(CCc3ccccc3I)n2CC)n(CCCCP(=O)(O)O)c1=O [B-31, (4-(7-Ethyl-8-(2-iodophenethyl)-2,6-dioxo-1-(prop-2-yn-1-yl)-1,2,6,7-tetrahydro-3H-purin-3-yl)butyl)phosphonic acid]
Emax ([3]; Table 4): 94% | EC50 ([3]; Table 4): 0.0874 ± 0.0242 µM | Emax ([1]; Table 3): 89% | EC50 ([1]; Table 3): 0.0937 ± 0.0523 nM | EC50 ([4]; Table 4): 0.000389 ± 9.2e-05 µM | Emax ([4]; Table 4): 103% | melting point: 202 to 204 °C

C#CCn1c(=O)c2c(nc(CCc3cccc(C(F)(F)F)c3)n2C)n(CCCCP(=O)(OCC)OCC)c1=O [C-5, Diethyl (4-(7-methyl-2,6-dioxo-1-(prop-2-yn-1-yl)-8-(3-(trifluoromethyl)phenethyl)-1,2,6,7-tetrahydro-3H-purin-3-yl)butyl)phosphonate]
IC50 ([3]; Table 1): > 10 µM | EC50 [3, 5]: > 10 µM | EC50 ([1]; Table 2): > 10000 nM | IC50 [4]: > 10 µM | EC50 ([4]; Table 1): > 10 µM | melting point: 121 to 124 °C
